{
  "source": "patent US6242564A",
  "about": "(priority 1992, dated 2001)",
  "key": {"HTLV-III virus (HIV)": {"tested_on": "HTLV-III virus (HIV)", "experiment": "Blockade of viral infection of human T cells (reverse transcriptase activity)", "assay_type": "cell-based", "conditions": "for Rank order of potencies in inhibiting receptor binding and viral infectivity: FIGS. 2c, 3", "experimental": "The treated cells were then panned on a plastic Petri dish that was coated with goat [F(ab')2 ] anti-mouse immunoglobulin (Sero Lab, Eastbury, Mass.) for 20 min at 4° C. The nonadherent cells were then removed, washed, and analyzed for reactivity by flow cytometry. […] Cells were then cultured with phytohemagglutinin (1 μg/ml) for 72 hrs and exposed to HIV as described below. Infected cells were phenotypically characterized when cytotoxicity assays were performed.\nThe HTLV-III virus used for infection was isolated from an interleukin 2 (IL-2)-dependent cultured T-cell line established from fresh AIDS patient material and passaged into HuT 78, permissive IL-2-independent cell line.\nEach determination was performed in duplicate."}, "[1]": {"tested_on": "T4 antigen (gp 120 receptor) on rat hippocampal membranes", "experiment": "Displacement of specific 125I-gp 120 binding to fresh rat hippocampal (brain) membranes", "experimental": "ETLV-IIIb isolate of HIV was propaged in H9 cells, and the gp 120 was isolated by immunoaffinity chromatography and preparative NaDodSO4 /PAGE. Purified gp 120 was labeled with 125 by the chloramine-T method.\nFresh human, monkey, and rat hippocampus were quickly homogenized (POLYTRON, Brinkmann Instruments) in 100 vol. of ice-cold 50 mM Hepes (pH 7.4). The membranes collected by centrifugation (15,000×g) were washed in the original buffer volume and were used fresh or stored at -70° C. Before use, brain membranes and highly purified T cells were preincubated for 15-30 min in phosphate-buffered saline (PBS). Preincubated membranes derived from 2 mg (initial we weight) of brain (α100 μg of protein) were incubated with 28,000 cpm of 125I -gp 120 for 1 hour at 37° C. in 200 μl (final volume) of 50 mM Hepes containing 0.1% bovine serum albumin and the peptidase inhibitors bacitracin (0.005%), aprotinin (0.005%), leupeptin (0.001%), and chymostatin (0.001%). Incubations were rapidly vacuum-filtered and counted to determine the receptor-bound material.\nEach determination was performed in triplicate; the results of one experiment, which was performed three times with similar results, is shown. Specific binding (FIG. 2b) displaceable by 10 μg/ml of OKT4 and 4A ranged between 27 and 85% of total binding, which was 2,201±74 cpm in the experiment shown."}, "[2]": {"biological_target": "HIV viral receptors, such as T4 (Homo sapiens, UniProt P01730)", "experiment": "General statements of receptor binding / activity, test not specified"}, "gp 120": {"tested_on": "gp 120", "conditions": "in vitro; cited from earlier work"}, "HIV": {"tested_on": "HIV", "conditions": "in vitro; cited from earlier work"}},
  "data": [
    {"compound": "C[C@@H](N)C(=O)N[C@@H](CO)C(=O)N[C@H](C(=O)N[C@H](C(=O)N[C@H](C(=O)N[C@@H](CC(N)=O)C(=O)N[C@@H](Cc1ccc(O)cc1)C(=O)N[C@H](C(N)=O)[C@@H](C)O)[C@@H](C)O)[C@@H](C)O)[C@@H](C)O", "note": "[D-[Ala]1-peptide T-amide]", "values": [
      {"measurement": "Rank order of potencies in inhibiting receptor binding and viral infectivity", "setting": "HTLV-III virus (HIV)", "value": "D-[Ala]1 -peptide T-amide>D-[Ala]1 -peptide T>peptide T>D-[Thr]8 -peptide T-amide"}
    ]},
    {"compound": "C[C@H](N)C(=O)N[C@@H](CO)C(=O)N[C@H](C(=O)N[C@H](C(=O)N[C@H](C(=O)N[C@@H](CC(N)=O)C(=O)N[C@@H](Cc1ccc(O)cc1)C(=O)N[C@@H](C(N)=O)[C@H](C)O)[C@@H](C)O)[C@@H](C)O)[C@@H](C)O", "note": "[D-[Thr]8-peptide T-amide]", "values": [
      {"measurement": "Rank order of potencies in inhibiting receptor binding and viral infectivity", "setting": "HTLV-III virus (HIV)", "value": "D-[Ala]1 -peptide T-amide>D-[Ala]1 -peptide T>peptide T>D-[Thr]8 -peptide T-amide"},
      {"measurement": "Concentration required for significant inhibition of viral infection, relative to the active peptides", "setting": "HTLV-III virus (HIV); human T cells", "value": 100, "unit": "fold"},
      {"measurement": "Blockade of viral infectivity (in words)", "setting": "HTLV-III virus (HIV); human T cells, FIG. 3", "value": "greatly reduced blockade of viral infection"},
      {"measurement": "Loss of receptor binding activity versus peptide T", "setting": "[1]", "value": "≥ 100", "unit": "fold"}
    ]},
    {"compound": "CYS-THR-THR-ASN-TYR-THR-CYS (CTTNYTC; printed: CYS-THR-THR-ASN-TYR-THR-CYS) [seven amino acid peptide, core with added cysteines]", "values": [
      {"measurement": "Activity (test not specified)", "setting": "[2]", "value": "also active"}
    ]},
    {"compound": "VIP: Vasoactive Intestinal Peptide", "values": [
      {"measurement": "Binding of gp 120 to brain tissue", "setting": "gp 120", "value": "inhibit"},
      {"measurement": "HIV replication in cell culture", "setting": "HIV", "value": "inhibit"}
    ]}
  ]
}
